Laboratory results as given in the CheMixHub viscosity set.

Assay: xn = mol fraction of the nth substance listed

C1=C[C@H]2[C@@H](C1)[C@H]1C=C[C@@H]2C1 + CC1CCCCC1
viscosity [mPa·s], 101.2 kPa
Conditions	x1 = 0.0987	x1 = 0.2012	x1 = 0.3023	x1 = 0.4007	x1 = 0.5024	x1 = 0.6001	x1 = 0.6994	x1 = 0.8017	x1 = 0.9021
293.15 K	0.8197	0.9187	1.043	1.198	1.398	1.646	2.032	2.607	3.386
298.15 K	0.7605	0.8517	0.9677	1.1	1.28	1.504	1.855	2.367	3.029
303.15 K	0.7145	0.791	0.8907	1.011	1.178	1.387	1.693	2.156	2.723
308.15 K	0.6717	0.7439	0.8387	0.9497	1.109	1.306	1.586	1.993	2.477
313.15 K	0.6316	0.7051	0.7996	0.9101	1.05	1.226	1.473	1.819	2.259
318.15 K	0.5952	0.6697	0.7496	0.8519	0.9802	1.138	1.359	1.668	2.059

Brc1ccccc1 + OCCOCCOCCO
viscosity [mPa·s], 101 kPa
Conditions	298.15 K	308.15 K
x2 = 0.0462	1.316	1.168
x2 = 0.1502	2.173	1.769
x2 = 0.2493	3.39	2.568
x2 = 0.3505	5.164	3.674
x2 = 0.4433	7.374	5.002
x2 = 0.4974	8.957	5.935
x2 = 0.5484	10.66	6.933
x2 = 0.6475	14.61	9.221
x2 = 0.7514	19.62	12.15
x2 = 0.8484	25.03	15.37
x2 = 0.937	30.42	18.72

Brc1ccccc1 + C1CCOC1
viscosity [mPa·s], 101 kPa
Conditions	x2 = 0.1051	x2 = 0.2012	x2 = 0.3022	x2 = 0.4031	x2 = 0.4987
298.15 K	1.014	0.9619	0.9067	0.8488	0.7916
313.15 K	0.8409	0.8	0.7551	0.7079	0.6622

O=C1CCCO1 + COC(=O)OC
viscosity [mPa·s]
Conditions	293.15 K	298.15 K	303.15 K	308.15 K	313.15 K	318.15 K	323.15 K
101 kPa, x2 = 0.1013	1.635	1.52	1.413	1.316	1.231	1.154	1.083
101 kPa, x2 = 0.2013	1.437	1.331	1.237	1.154	1.08	1.013	0.953
101 kPa, x2 = 0.3001	1.277	1.186	1.104	1.033	0.968	0.91	0.857
101 kPa, x2 = 0.4006	1.138	1.058	0.987	0.923	0.867	0.816	0.77
101 kPa, x2 = 0.5	1.018	0.95	0.889	0.836	0.786	0.742	0.701
101 kPa, x2 = 0.5986	0.918	0.856	0.802	0.753	0.709	0.669	0.634
101 kPa, x2 = 0.6999	0.83	0.776	0.728	0.685	0.647	0.612	0.58
101 kPa, x2 = 0.7989	0.75	0.702	0.659	0.62	0.585	0.553	0.524
101 kPa, x2 = 0.8995	0.685	0.644	0.605	0.57	0.538	0.51	0.483
101.3 kPa, x2 = 0.1282	–	1.22	–	–	–	–	–
101.3 kPa, x2 = 0.1724	–	1.14	–	–	–	–	–
101.3 kPa, x2 = 0.2631	–	0.99	–	–	–	–	–
101.3 kPa, x2 = 0.4545	–	0.85	–	–	–	–	–
101.3 kPa, x2 = 0.5555	–	0.83	–	–	–	–	–
101.3 kPa, x2 = 0.6603	–	0.76	–	–	–	–	–
101.3 kPa, x2 = 0.7792	–	0.78	–	–	–	–	–
101.3 kPa, x2 = 0.8823	–	0.67	–	–	–	–	–

BrCCBr + Cc1ccc(C)cc1
101.33 kPa
Conditions	viscosity [mPa·s]
298.15 K, x1 = 0.1435	0.6686
298.15 K, x1 = 0.2783	0.7322
298.15 K, x1 = 0.391	0.7899
298.15 K, x1 = 0.4898	0.887
298.15 K, x1 = 0.5921	1.001
298.15 K, x1 = 0.6809	1.082
298.15 K, x1 = 0.7685	1.169
298.15 K, x1 = 0.8555	1.309
298.15 K, x1 = 0.9211	1.459
308.15 K, x1 = 0.1371	0.5822
308.15 K, x1 = 0.2566	0.6257
308.15 K, x1 = 0.3821	0.6992
308.15 K, x1 = 0.4845	0.7526
308.15 K, x1 = 0.5874	0.8292
308.15 K, x1 = 0.6798	0.9216
308.15 K, x1 = 0.7647	1.018
308.15 K, x1 = 0.8499	1.154
308.15 K, x1 = 0.9258	1.273

C1=C[C@H]2[C@@H](C1)[C@H]1C=C[C@@H]2C1 + Cc1ccccc1
viscosity [mPa·s], 101.2 kPa
Conditions	x1 = 0.1024	x1 = 0.2018	x1 = 0.3008	x1 = 0.4006	x1 = 0.4997	x1 = 0.606	x1 = 0.7014	x1 = 0.7987	x1 = 0.8991
293.15 K	0.6849	0.7905	0.9144	1.08	1.279	1.57	1.948	2.495	3.305
298.15 K	0.6448	0.7387	0.8543	1.001	1.174	1.44	1.758	2.24	2.96
303.15 K	0.6068	0.69	0.7952	0.9255	1.083	1.313	1.602	2.024	2.665
308.15 K	0.5742	0.6559	0.7533	0.8681	1.019	1.222	1.486	1.875	2.43
313.15 K	0.5451	0.6205	0.7071	0.8118	0.9488	1.135	1.375	1.718	2.208
318.15 K	0.5187	0.5889	0.6667	0.76	0.8866	1.062	1.283	1.58	2.012
